The structures appear in SMILES notation.

The conditions of series [1]: at this field strength (4.7 T); cited from earlier work.
Series [2] in a line: Free Gd concentration by CHELEX solid phase extraction and ICP-MS. The format is physicochemical. As to conditions: CHELEX solid phase extraction, magnetic sector ICP-MS. An excerpt:
After considering other alternatives, we decided to determine free Gd concentration by selective chelation and separation of the free Gd. We separated the Gd-DO3A-404 complex from free Gd (III) ion by CHELEX® solid phase extraction (as described by Raju, et al., J. Anal. At. Spectrom. 25 (2010), 1573-1580). Specifically, using a CHELEX® solid phase extraction column comprising an immobilized ligand (iminodiacetate) with very high affinity for free ion species of multi-valent transition and rare-earth metals, Gd was retained and then eluted using a known ratio of chelated Gd-DO3A-404 and acid-digested Gd-DO3A-404. The sample was the analyzed by magnetic sector ICP-MS to determine the concentration of free Gd.

Series [3] can be described thus: MR relaxivity (r1, r2) at 4.7 T. The format is physicochemical. On the procedure:
For initial studies, relaxivity was measured at 4.7 T. Longitudinal relaxivity, which is defined by the linear relationship between R1 relaxation rate and concentration, was measured using an inversion recovery spin echo sequence.
Higher relaxivity results in brighter signal on a T1-weighted image, and thus indicates greater T1-weighted signal enhancement potential. […]
Similarly, by plotting R2 versus concentration at five different concentrations of the Gd-DOTA-404 agent and determining the equation of the resulting line (see FIG. 3, right panel), we calculated a transverse relaxivity in plasma of 20.4 s−1/mM.

For series [4], the system named is flank A549 tumor (human non small cell lung cancer) xenograft. Description: In vivo MRI of flank A549 xenograft mice. Also on record: species or system mouse. As for the experimental part: For proof-of-concept in vivo imaging of tumor uptake of the Gd-DO3A-404 agent, nude athymic mouse with a flank A549 tumor (non small cell lung cancer) xenograft was scanned. […] Mice were anesthetized and scanning performed prior to contrast administration and at 1, 4, 24, 48, and 72 hours following contrast delivery. Imaging was performed on a 4.7 T Varian preclinical MRI scanner with a volume quadrature coil. T1-weighted images were acquired at all imaging time points using a fast spin echo scan with the following pulse sequence parameters: repetition time (TR)=206 ms, echo spacing=9 ms, echo train length=2, effective echo time (TE)=9 ms, 10 averages, with a 40×40 mm^2 field of view, 192×192 matrix, 10 slices of thickness lmm each.

Series [5] can be described thus: In vivo biodistribution by T1-weighted SPGR MRI of the abdomen. The arrangement: species or system mouse. As to conditions: 2.5 mg intravenous. On the procedure: In this example, we determined the in vivo biodistribution of the Gd-DO3A-404 after the contrast agent was administered (see Example 5). During the course of performing the experiments described in Example 4, we also acquired T1-weighted spoiled gradient (SPGR) images in the abdomen of the mice, to observe biodistribution. Abdominal cross-sections imaged included the myocardium (FIGS. 8-12, top image), the liver (FIGS. 8-12, center image), and a kidney (FIGS. 8-12, bottom image). Images are shown pre-contrast (FIG. 8), and at one hour (FIG. 9), 24 hours (FIG. 10), four days (FIG. 11) and seven days post-contrast (FIG. 12).

The test system of series [6] is orthotopic glioblastoma stem cell line 12.6. Description: Brain tumor uptake by MRI in orthotopic glioblastoma model. The format is in vivo, mouse. As for the experimental part: To investigate the use of Gd-DO3A-404 to detect tumors and metastases in situ, in particular, in the brain, we created an orthotopic glioblastoma model using cancer stem cells injected into the brain. To create the model, brains of mice were injected with cells from orthotopic glioblastoma stem cell line 12.6. After sufficient tumor growth, monitored with T2-weighted MRI, we imaged subjects pre-contrast and after delivery (24-72 hours) of two different doses of Gd-DO3A-404 (2.5 or 3.7 mg; ˜0.12−0.18 mmole/kg).

A further series relates to A549 flank tumor. Description: Tissue biodistribution by SF-ICPMS in A549-flank bearing mice. The class given is in vivo, mouse. As to conditions: 72 hours after administration; FIG. 16. As for the experimental part: In this extension of Example 6, we further examined the in vivo biodistribution of Gd-DO3A-404 after it is administered. Specifically, tissue biodistribution was measured in A549-flank bearing mice 72 hours after administration of Gd-DO3A-404. Nude athymic mice were sacrificed, perfused and tissues were collected and quantitated for Gd by high-resolution (magnetic-sector) inductively-coupled plasma mass spectrometry (SF-ICPMS). n=3 mice.

The subject of series [7] is Alpha-beta crystalline overexpressing mice (triple negative breast cancer model). Description: MRI uptake in triple-negative breast cancer model. The format is in vivo, mouse. As to conditions: over 48 hours post-administration; FIG. 17. As for the experimental part:
Alpha-beta crystalline overexpressing mice (a triple negative breast cancer model) underwent MR imaging pre administration and 24 hours and 48 hours post-administration of […] (n=4).

Series [8] relates to orthotopic U87 xenografts. Description: MRI uptake in orthotopic U87 xenografts. The format is in vivo, mouse. As to conditions: NOD-SCID mice; 24 and 48 hours post administration; FIG. 18 left. As for the experimental part:
NOD-SCID mice with orthotopic U87 xenografts were imaged pre-administration, 24 hours, and 48 hours post administration of Gd-DO3A-404.

Series [9] concerns Orthotopic GSC 115 (human glioma stem cell model). Briefly: MRI uptake in orthotopic GSC 115 model. The class given is in vivo. As to conditions: 24 hours post administration; FIG. 18 right. On the procedure: Orthotopic GSC 115 was imaged at 24 hours post administration of Gd-DO3A-404. GSC is a human glioma stem cell model which was isolated from a human glioma patient.
Series [10] relates to flank U87 (human glioma) xenograft. Description: Simultaneous PET/MR imaging of U87 flank xenograft rat. The format is in vivo. As for the experimental part: Simultaneous imaging was performed using a clinical Pet/MRI scanner. ^64Cu-DO3A-404 has the same structure as Gd-DO3A-404, except that ^64Cu, a positron emitting radionuclide, is chelated to the chelating moiety instead of Gd. ^64Cu-DO3A-404 was synthesized (and can be synthesized using the methods disclosed herein; see, e.g., Example 1). Both the ^64Cu-DO3A-404 and Gd-DO3A-404 chelates were injected simultaneously into a rat with a flank U87 (human glioma) xenograft.
T1-weighted scans of the U87 flank xenograft were obtained using the clinical 3.0 T PET/MR. Rats were imaged pre- and 24 hours post-administration of the Gd-DO3A-404.
Simultaneous PET/MR scans of the U87-flank bearing rat 24 hours post-simultaneous administration of both Gd-DO3A-404 (the MRI contrast agent) and ^64Cu-DO3A-404 (the PET contrast agent) were obtained.

Series [11] has as its system flank U87 (human glioma) tumor. Description: In vivo MRI of flank U87 xenograft mice.
Procedure: To test uptake and retention in rodent models of human cancer, flank xenografts were established in mice for two distinct tumor types, A549 (human non small cell lung cancer, NSCLC) and U87 (human glioma). N=3 for each model. For pre-contrast imaging, T1-W images of the tumor and abdomen (FIG. 4; 2 leftmost images) and T1 maps of the tumor were obtained.
At time zero (“contrast”), 2.5 mg of Gd-DO3A-404 (˜12 mmol/kg body mass) was delivered into the mice by intravenous injection. Animals were scanned pre-contrast and at various time points between one hour and seven days post-contrast (after one hour, 24 hours, 48 hours, three days, four days and seven days). T1 maps of the tumor were acquired for each time point, along with T1-weighted images of the tumor and the abdomen (see FIGS. 4 and 5).
We the quantified the tumor to muscle ratio and compare it to baseline scans.

Turning to `CNC[C@H](O)[C@@H](O)[C@H](O)[C@H](O)CO.O=C([O-])CN1CCN(CC(=O)[O-])CCN(CC(=O)O)CCN(CC(=O)[O-])CC1.[Gd+3]` [DOTAREM®], the “relaxivities of clinical T1 shortening contrast agents” value in series [1] was 2 to 3 s⁻¹ mM⁻¹.

Turning to `C[N+](C)(C)CCOP(=O)([O-])OCCCCCCCCCCCCCCCCCCc1ccc(NC(=O)CN2CCN(CC(=O)[O-])CCN(CC(=O)[O-])CCN(CC(=O)[O-])CC2)cc1.[Gd+3]` [Gd-DO3A-404], the “free Gd concentration” value in series [2] amounted to 0.081%. Also, the “Longitudinal relaxivity (r1)” value in [3] (in excipient) stood at 5.84 s⁻¹ mM⁻¹; in series [3] (in plasma), 5.74 s⁻¹ mM⁻¹; in series [3] (in saline) it was 5.68 s⁻¹ mM⁻¹. Further, the “tumor to muscle T1-weighted signal ratio following delivery” value in series [4] (2.5 mg intravenous, A549, versus pre-contrast, FIG. 6) is “approximately doubled”; in [11] (2.5 mg intravenous, U87, versus pre-contrast, FIG. 6), “approximately doubled”. In addition, the “time of maximum tumor uptake” value in [4] (2.5 mg intravenous, NSCLC model, FIG. 4) is given as 24-48 hours post-contrast. Further, the “duration of tumor uptake” value in series [4] (2.5 mg intravenous, NSCLC model, FIG. 5) is given as “maintained over several days”. The “MRI imaging of the tumor (T1-weighted enhancement)” value in series [4] (2.7 mg via tail vein injection, scans 1-72 hours, FIG. 2) was “significantly enhanced by 24 hours post-injection”. Moreover, the “tumor R1 relaxation rate” value was “significantly increased” in [4] (A549, 48 hours post-contrast versus pre-contrast, FIG. 7) and “significantly increased” in [11] (U87, 48 hours post-contrast versus pre-contrast, FIG. 7). Besides, in series [5], the P-kinetic profile result is listed as “including hepatobiliary excretion, that is similar to that of related alkylphosphocholine analogs”. In series [5] (FIGS. 8-12), the “circulation in the myocardium and blood pool” value was “circulates for nearly up to a day”. The “clearance from liver and kidney” value in [5] (up to seven days, FIGS. 8-12) was “substantially cleared over time, with more rapid clearance occurring through the liver, and more prolonged clearance occurring through the kidney”. The brain tumor uptake entry is recorded as “uptake in one subject” in series [6] (increased dose 3.7 mg, FIG. 15 bottom panel) and “no brain uptake was observed” in series [6] (lower dose 2.5 mg, FIG. 15 upper panel). The “tissue biodistribution (Gd by SF-ICPMS)” value with A549 flank tumor was “selectively taken up by tumor tissue”. Besides, the “uptake in breast cancer tissue by MRI” value in [7] is “taken up by and localized to the breast cancer tissue”. Moreover, the results for the “tumor uptake by T1-weighted MRI” value in series [8] and in [9] were “differentially taken up by the tumor tissue” and “differentially taken up by the tumor tumor tissue”, respectively. Moreover, the “tumor uptake by T1-weighted MR (clinical 3.0 T PET/MR)” value in series [10] (24 hours post-administration, FIG. 19) is reported as “selective tumor uptake”. Moreover, the “tumor enhancement in MRI images (simultaneous PET/MR)” value in series [10] (24 hours post-simultaneous administration, FIG. 20) is “enhanced enhances in both the T1 and T2 MRI images”. In addition, in [11] (2.5 mg intravenous, U87 model, FIG. 4), the “onset of tumor uptake” value is on record as “already observable at one hour after delivery”. In addition, in series [11] (2.5 mg intravenous, U87 model, FIG. 5), the “level and duration of tumor uptake compared with NSCLC model” value was “appeared to reach higher levels and was maintained for a longer time period”.

The values above are taken from patent US12564635B2, “Long-lived gadolinium based tumor targeted imaging and therapy agents” (WISCONSIN ALUMNI RESEARCH FOUNDATION, priority 2015, dated 2026).
